Experiments:
[1] = system: spleen cells; experiment: cells; type: cell-based; details: 24 h, read-out: Minimum effective concentration (interferon inducing activity), CD(SD)IGS rat spleen cells, 24 hours incubation; interferon in supernatant by L929/vesicular stomatitis virus bioassay
[2] = Metabolic stability test using human plasma; type: in vitro ADME; details: 1 μM test compound, 37° C. for 15 minutes, residual amount per pre-metabolization concentration as 100%
Experimental: Plasma was prepared from fresh human blood and the test compound (containing 1% DMSO) of the final concentration of 1 μM was added thereto.
After a metabolic reaction by plasma esterase was conducted at 37° C. for 15 minutes, the test compound was extracted with ethyl acetate, and quantitatively analyzed by reverse phase HPLC. The metabolic stability of the test compound was shown by the residual amount (%) per the concentration of pre-metabolization as 100%.

[3] = Metabolic stability test on rat liver S9; type: in vitro ADME; details: rat liver S9 with NADPH, 1 μM test compound, 37° C.; residual rate after reaction, LC/MS
Experimental: The reaction using liver S9 of rat was conducted on a 96-well plate by using a screening robot by Tecan Company. S9 solution was prepared by adding 250 mM Kpi (pH 7.4) 20 ml and deionized water 20 ml to 10 ml of liver S9 of rat, a Cofactor solution was prepared by dissolving NADPH 220 mg in deionized water 40.5 ml (Final 6 mM), and IS (Internal Standard) solution was prepared by adding IS solution (1 mM DMSO solution) 300 μl to acetonitrile 30 ml (100 times dilution). The test compound (1 μM DMSO solution) was dissolved in an incubator at 37° C. After each 35 μL was poured in a 96-well plate (24 samples/plate), plates (sample plates, 96-well plates for dilution, each Deep well plates for the reaction and the recovery, plates for extraction of a solid phase) and reagents (S9 solution, Cofactor solution, IS (Internal Standard) solution, Stop solution, acetonitrile for elution) were set to the specified position in the booth of the robot, and the reaction started (the concentration of the test compounds was 1 μM). Incubation was conducted under shaking at 37° C., the solid phase was extracted (at the same time, the internal standard for analysis was added). To the recovered samples 200 μL/well was added 50 μL of acetonitrile per each well, and to 2 plates of FALCON Deep well were poured 100 μL/well of the solution per well. By subjecting to the LC/MS analysis, the chromatography of the test compound and the internal standard were described and the peak area was calculated. And then, the stability (residual rate after reaction) was calculated.

Nc1nc(SCCCO)nc2c1nc(O)n2Cc1cccc(CC(=O)O)c1 [Comparative example 1, 9-(3-Carboxymethylbenzyl)-8-hydroxy-2-(3-hydroxypropylthio)adenine, reference compound]
minimal effective concentration [1]: > 1 µM

Nc1nc(SCCCCO)nc2c1nc(O)n2Cc1cccc(CC(=O)O)c1 [Comparative example 2, 9-(3-Carboxymethylbenzyl)-8-hydroxy-2-(4-hydroxybutylthio)adenine, reference compound]
minimal effective concentration [1]: 1 µM

COC(=O)Cc1cccc(Cn2c(O)nc3c(N)nc(SCCCO)nc32)c1 [Example 1, 8-Hydroxy-2-(3-hydroxypropylthio)-9-(3-methoxycarbonylmethylbenzyl)adenine]
minimal effective concentration [1]: 0.01 µM | Residual rate [2]: <1%

COC(=O)Cc1cccc(Cn2c(O)nc3c(N)nc(SCCCCO)nc32)c1 [Example 2, 8-Hydroxy-2-(4-hydroxybutylthio)-9-(3-methoxycarbonylmethylbenzyl)adenine]
minimal effective concentration [1]: 0.01 µM | Residual rate [2]: <1%

COC(=O)Cc1cccc(Cn2c(O)nc3c(N)nc(OCCCO)nc32)c1 [Example 4, 8-Hydroxy-2-(3-hydroxypropoxy)-9-(3-methoxycarbonylmethylbenzyl)adenine]
minimal effective concentration [1]: 0.03 µM | Residual rate [2]: 3.2% | Residual rate [3]: 8%

COC(=O)Cc1cccc(Cn2c(O)nc3c(N)nc(OCCO)nc32)c1 [Example 5, 8-Hydroxy-2-(2-hydroxyethoxy)-9-(3-methoxycarbonylmethylbenzyl)adenine]
minimal effective concentration [1]: 0.1 µM | Residual rate [2]: 5.8%

CCCCOc1nc(N)c2nc(O)n(CCc3cccc(CC(=O)OC)c3)c2n1 [Example 9, 2-Butoxy-8-hydroxy-9-[2-(3-methoxycarbonylmethylphenyl)ethyl]adenine]
minimal effective concentration [1]: 0.03 µM | Residual rate [2]: 7.9% | Residual rate [3]: 0%

CCCCOc1nc(N)c2nc(O)n(CCCc3cccc(CC(=O)OC)c3)c2n1 [Example 10, 2-Butoxy-8-hydroxy-9-[3-(3-methoxycarbonylmethylphenyl)propyl]adenine]
minimal effective concentration [1]: 0.01 µM | Residual rate [2]: <1% | Residual rate [3]: 1%

COC(=O)Cc1cccc(Cn2c(O)nc3c(N)nc(OCC(O)CO)nc32)c1 (stereo not shown) [Example 11, 2-(2,3-Dihydroxy-1-propoxy)-8-hydroxy-9-(3-methoxycarbonylmethylbenzyl)adenine]
Residual rate [2]: 20.9%

CCOCCOc1nc(N)c2nc(O)n(Cc3cccc(CC(=O)OC)c3)c2n1 [Example 12, 2-(2-Ethoxyethoxy)-8-hydroxy-9-(3-methoxycarbonylmethylbenzyl)adenine]
Residual rate [3]: 0%

COC(=O)Cc1cccc(Cn2c(O)nc3c(N)nc(OCC4CCCCC4)nc32)c1 [Example 13, 2-Cyclohexylmethoxy-8-hydroxy-9-(3-methoxycarbonylmethylbenzyl)adenine]
Residual rate [3]: 11%

COC(=O)CCc1nc(N)c2nc(O)n(Cc3cccc(CC(=O)OC)c3)c2n1 [Example 15, 8-Hydroxy-2-(2-methoxycarbonylethyl)-9-(3-methoxycarbonylmethylbenzyl)adenine]
Residual rate [3]: 0%

CCCCOc1nc(N)c2nc(O)n(Cc3ccc(CC(=O)OC)s3)c2n1 [Example 16, 2-Butoxy-8-hydroxy-9-{(5-methoxycarbonylmethyl-2-thienyl)methyl}adenine]
Residual rate [3]: 0%

CCCCOc1nc(N)c2nc(O)n(Cc3cccc(CC(=O)OC)n3)c2n1 [Example 18, 2-Butoxy-8-hydroxy-9-{(6-methoxycarbonylmethyl-2-pyridyl)methyl}adenine]
Residual rate [3]: 0%

CCCCOc1nc(N)c2nc(O)n(Cc3cc(CC(=O)OC)ccn3)c2n1 [Example 19, 2-Butoxy-8-hydroxy-9-{(4-methoxycarbonylmethyl-2-pyridyl)methyl}adenine]
Residual rate [3]: 0%

CCCCOc1nc(N)c2[nH]c(=O)n(Cc3cc(CC(=O)OC)ccc3OC)c2n1 [Example 20, 2-Butoxy-8-hydroxy-9-[(2-methoxy-5-methoxycarbonylmethyl)benzyl]adenine]
Residual rate [3]: 0%

CCCCOc1nc(N)c2[nH]c(=O)n(Cc3ccc(F)c(CC(=O)OC)c3)c2n1 [Example 21, 2-Butoxy-9-[(4-fluoro-3-methoxycarbonylmethyl)benzyl]-8-hydroxyadenine]
Residual rate [3]: 1%

CCCCOc1nc(N)c2[nH]c(=O)n(Cc3ccc(OC)c(CC(=O)OC)c3)c2n1 [Example 22, 2-Butoxy-8-hydroxy-9-[(4-methoxy-3-methoxycarbonylmethyl)benzyl]adenine]
Residual rate [3]: 2%

Nc1nc(OCCCO)nc2c1nc(O)n2Cc1cccc(CC(=O)O)c1 [compound 4, 9-(3-Carboxymethylbenzyl)-8-hydroxy-2-(3-hydroxypropoxy)adenine, reference compound]
minimal effective concentration [1]: > 1 µM

Nc1nc(OCCO)nc2c1nc(O)n2Cc1cccc(CC(=O)O)c1 [compound 5, 9-(3-Carboxymethylbenzyl)-8-hydroxy-2-(2-hydroxyethoxy)adenine, reference compound]
minimal effective concentration [1]: > 1 µM

CCCCOc1nc(N)c2nc(O)n(CCc3cccc(CC(=O)O)c3)c2n1 [compound 9, 2-Butoxy-9-[2-(3-carboxymethylphenyl)ethyl]-8-hydroxyadenine, reference compound]
minimal effective concentration [1]: 0.3 µM

CCCCOc1nc(N)c2nc(O)n(CCCc3cccc(CC(=O)O)c3)c2n1 [compound 10, 2-Butoxy-9-[3-(3-carboxymethylphenyl)propyl]-8-hydroxyadenine, reference compound]
minimal effective concentration [1]: 0.1 µM

From patent US20070225303A1, “8-Oxoadenine Compound” (priority 2004, published 2007)
